System: Cdc2 (Cdk1) tyrosine 15-phosphorylation
Assay: Cdc2 (Cdk1) tyrosine 15-phosphorylation-inhibitory effect in WiDr cells + gemcitabine (ELISA)
Type: cell-based
Details: Homo sapiens, gemcitabine 100 nM for 24 hours, then test compound with nocodazole for 8 hours, read-out: Cdc2-Y15 Phosphorylation-Inhibitory Effect (WiDr, + gemcitabine) (EC50)
Source text: Pharmaceutical Text 2 (Method of Determining Drug Potency in Cells (Cdc2 (Cdk1) Tyrosine 15-Phosphorylation-Inhibitory Effect))
Fetal bovine serum (FBS) was obtained from Morgate; media RPMI1640 and DMEM were from Invitrogen; camptothecin was from Sigma; gemcitabine was from Nippon Eli Lilly; nocodazole and protease inhibitor cocktail were from Sigma; rabbit anti-Cdc2 antibody and mouse anti-Cdc2 antibody were from Santa Cruz Biotechnology; rabbit anti-tyrosine 15-phosphorylated Cdc2 antibody and horseradish peroxidase-labeled anti-mouse IgG antibody were from Cell Signaling Technology; sure blue reserve TMB peroxidase substrate was from Kirkegaard and Perry Laboratories. […]
In the method of using WiDr cells, the cells were suspended in DMEM containing 10% FBS, and the cell suspension was applied to a 96-well Nunclondelta-processed plastic plate in an amount of 2000 cells/100 μL/well, in which the cells were incubated overnight in 5% CO2-95% air at 37° C. […] Cdc2 was determined through ELISA as follows: A rabbit anti-Cdc2 antibody solution, which had been diluted 200-fold with 50 mM carbonate-bicarbonate buffer (pH 9.6), was applied to a 96-well maxisorp plastic plate in an amount of 50 μL/well, and statically kept overnight at 4° C. so as to fix the antibody on the plate. […]

SMILES: C=CCn1c(=O)c2cnc(Nc3ccc(N4CCN(C)CC4)cc3)nc2n1-c1cccc(C(C)(C)O)n1 [Example 53, 2-allyl-1-[6-(1-hydroxy-1-methylethyl)pyridin-2-yl]-6-{[4-(4-methylpiperazin-1-yl)phenyl]amino}-1,2-dihydro-3H-pyrazolo[3,4-d]pyrimidin-3-one]
- EC50: 119 nM

— US7834019B2, “Substituted pyrazolo[3,4-d]pyrimidinone derivatives” (Banyu Pharmaceutical Co., Ltd., priority 2006, dated 2010)
